We go through 95 compounds from ChEMBL document CHEMBL3507680, “University of Dundee, Gates Library screen for HepG2 cell viability”.

SMILES strings stand for the structures.

The data set can be described thus: Human HepG2 cell viability assay in 384 well format. It is filed as toxicity, cell-based. On the set-up: dose 125 nL, time 70.5 hour; cytotoxicity at 70.5 h: concentration not given beside the values. As to conditions: HepG2 cells, read-out: Inhibition.
In the case of `O=C(CO)N1CCCC2(CCN(c3ccsc3)C2=O)C1` (stereo not given), the cytotoxicity at 70.5 h was -8.82%.

With `Cc1ccc2c(n1)N(CCN(C)C)CCN(C(=O)c1ccco1)C2`, the cytotoxicity at 70.5 h was -4.83%.

In the case of `CCS(=O)(=O)N1CCn2cc(CN(C)Cc3ccco3)nc2C1`, the cytotoxicity at 70.5 h was -2.7%.

In the case of `COCCC(=O)N1CC2(CCN(Cc3ccncc3)CC2)C1`, the cytotoxicity at 70.5 h was -1.69%.

Consider `O=C(c1cscn1)N1CCc2ncc(Cn3cncn3)n2CC1`, for which the cytotoxicity at 70.5 h was -6.09%.

Turning to `O=C(c1ccco1)N1CCn2cc(CN3CCCC3)nc2C1`, the cytotoxicity at 70.5 h was -1.74%.

`Cc1ccoc1C(=O)N1CCn2cc(CN3CCCC3)nc2C1`: the cytotoxicity at 70.5 h was -4.12%.

As for `COCCC(=O)N1CC[C@H]2O[C@@H](C)C[C@H]2C1`, the cytotoxicity at 70.5 h is -7.16%.

Consider `O=C(c1ccno1)N1CCn2cc(CN3CCCCC3)nc2C1`, for which the cytotoxicity at 70.5 h is -2.37%.

Take `O=C(c1ccc2[nH]ccc2c1)N1CCn2cc(CN3CCCC3)nc2C1`: the cytotoxicity at 70.5 h is -13.7%.

Take `Cc1cc(N2CCN(C(=O)Cc3ccc4c(c3)OCO4)CC2)cc(C)n1`: the cytotoxicity at 70.5 h was -9.94%.

Turning to `COCCc1ncc(CN2CCC3(CCCN(CC4CC4)C3)C2)cn1` (stereo not given), the cytotoxicity at 70.5 h was found to be 0.629%.

With `CCCN1C[C@H]2CC[C@@H]1CN(Cc1cccc(O)c1)C2`, the cytotoxicity at 70.5 h is -9.57%.

With `CNc1ncc(CN(C)C(=O)c2ccc(C3CCCO3)s2)cn1` (stereo not given), the cytotoxicity at 70.5 h is -3.31%.

Consider `COc1ncccc1C1CC(=O)NCc2nc3ccccn3c21` (stereo not given), for which the cytotoxicity at 70.5 h is 1.55%.

Take `CCN(CC)CCCNc1nccc(-c2cn(C)nc2C)n1`: the cytotoxicity at 70.5 h was -3.41%.

As for `CN(C)c1nc2c(c(N(C)Cc3n[nH]c4c3CCCC4)n1)CCNCC2`, the cytotoxicity at 70.5 h is -7.02%.

With `Cc1cc2ccccc2n1CCC(=O)NCCCc1nnc(N)s1`, the cytotoxicity at 70.5 h turned out to be 33.9%.

For `Cc1nc[nH]c1CN1CCn2nc(CN3Cc4ccccc4C3)cc2C1`, the cytotoxicity at 70.5 h is -7.32%.

On to `Cc1ccccc1C(C(=O)NCc1nc(-c2ncccn2)no1)N(C)C` (stereo not given), for which the cytotoxicity at 70.5 h was -6.36%.

With `CCN(CC1CCCN(CCc2cccc(OC)c2)C1)C(=O)CSC` (stereo not given), the cytotoxicity at 70.5 h was -8.89%.

Turning to `CCc1ccccc1CN1CCn2nc(CNC(C)=O)cc2C1`, the cytotoxicity at 70.5 h was determined as 59.7%.

Regarding `O=C1CCC2(CCOC2)CN1Cc1nncn1CCc1ccccc1` (stereo not given), the cytotoxicity at 70.5 h is 4.96%.

Consider `CCN1CCC(CC(=O)NCCc2nc(C)cc(C)n2)CC1`, for which the cytotoxicity at 70.5 h is -3.38%.

In the case of `N[C@H]1CN(C(=O)c2ccccc2OCc2ccccc2)C[C@@H]1C1CC1`, the cytotoxicity at 70.5 h is -11.7%.

`O=C(NC1CCc2ccccc2C1)C1CCN(Cc2ccco2)CC1` (stereo not given): the cytotoxicity at 70.5 h was -2.67%.

`Cc1cc(C)cc(CN2CCN(C(=O)C3CCC3)[C@@H]3CS(=O)(=O)C[C@@H]32)c1`: the cytotoxicity at 70.5 h is -5.88%.

For the compound `O=S(=O)(NCc1ccccc1)Nc1ccc(-n2cncn2)cc1`, the cytotoxicity at 70.5 h was -5.87%.

As for `CCc1nc(CNc2nc3c(s2)c(C)nn3C)cs1`, the cytotoxicity at 70.5 h is -3.7%.

`CC(C)=CCN1CCC2(CC1)c1ccccc1[C@@H](N1CCSCC1)[C@@H]2O`: the cytotoxicity at 70.5 h is -4.97%.

In the case of `Cc1cc(CN2CCC(CNC(=O)c3noc4c3CCCC4)C2)[nH]n1` (stereo not given), the cytotoxicity at 70.5 h amounted to 13.3%.

`CCCN1CCN(C(=O)c2cccc(C)n2)[C@H]2CS(=O)(=O)C[C@H]21`: the cytotoxicity at 70.5 h is 14.2%.

For `CCS(=O)(=O)N1CCOC(CCCc2ccccc2)C1` (stereo not given), the cytotoxicity at 70.5 h amounted to 5.87%.

For `CN1[C@H](CO)C[C@H](CNCc2ccc(CO)o2)[C@@H]1c1ccccc1F`, the cytotoxicity at 70.5 h was -4.51%.

Consider `NCC1CN(C(=O)c2cccc(-n3cccn3)c2)CCO1` (stereo not given), for which the cytotoxicity at 70.5 h was 5.52%.

Consider `O=C(c1cc(-c2ccc(O)cc2)n[nH]1)N1CCCC1c1cccnc1` (stereo not given), for which the cytotoxicity at 70.5 h was determined as 0.428%.

As for `Cc1cnc(C(=O)N2C[C@H]3CC[C@@H]2CN(S(=O)(=O)N(C)C)C3)cn1`, the cytotoxicity at 70.5 h was -7.71%.

`CCCn1cc(S(=O)(=O)N[C@H]2CN(C(C)=O)C[C@@H]2C2CC2)cn1`: the cytotoxicity at 70.5 h is -1.84%.

As for `Cc1ccc(C(C(=O)O)N(C)CCCN2CCOCC2)c(C)c1` (stereo not given), the cytotoxicity at 70.5 h was -8.61%.

With `CCC[C@@H]1CN(Cc2ccccc2OC(F)(F)F)C[C@H]1NC(C)=O`, the cytotoxicity at 70.5 h was -20%.

`CCNC(=O)Cc1ccc(-c2cccc3c2CCNC3)cc1`: the cytotoxicity at 70.5 h was -17.3%.

On to `Cc1nnc(SCCNC(=O)c2cc(S(N)(=O)=O)ccc2F)s1`, for which the cytotoxicity at 70.5 h was -5.1%.

As for `COCc1ncc(CN2CCC3(CCNCC3)CC2)cn1`, the cytotoxicity at 70.5 h is -2.36%.

Turning to `CCC1CN(C(=O)c2cc(CN(C)CCc3ccccc3)on2)CCO1` (stereo not given), the cytotoxicity at 70.5 h was -7.15%.

As for `CC(C)N(C)S(=O)(=O)c1ccc2c(c1)CCN(C(=O)c1cscn1)C2`, the cytotoxicity at 70.5 h was -20.3%.

As to `O=C(NC1CCCN(c2ncccn2)C1)c1cn2ccccc2n1` (stereo not given), the cytotoxicity at 70.5 h was -6.6%.

`Cc1ccc2oc(=O)n(CCC(=O)N3CCC4(CN(C)C(=O)O4)C3)c2c1` (stereo not given): the cytotoxicity at 70.5 h was -1.59%.

Regarding `Cc1nn(C)c(C)c1-c1ccnc(N2CCCN(CC(C)C)CC2)n1`, the cytotoxicity at 70.5 h was determined as 4.01%.

As to `Cc1nn(C(C)C)c(C)c1CN1CCC(c2cc(C(C)C)n[nH]2)CC1`, the cytotoxicity at 70.5 h is -0.772%.

For `CCn1ccnc1CN1CCCn2nc(CNC(=O)C3CCC3)cc2C1`, the cytotoxicity at 70.5 h was -7.76%.

Consider `Cc1ccncc1C(=O)N1C[C@@H]2CN(c3ncccn3)C[C@]2(C(=O)O)C1`, for which the cytotoxicity at 70.5 h was -5.72%.

Take `O=C(Cn1ncc(N2CCNCC2)cc1=O)NCCc1ccc(F)cc1`: the cytotoxicity at 70.5 h is -3.8%.

Consider `O=C(N1CCOCC1)N1C[C@H]2CC[C@@H]1CN(C1Cc3ccccc3C1)C2`, for which the cytotoxicity at 70.5 h turned out to be 5.2%.

With `O=C1CN(C(=O)CC2C(=O)NCCN2CC2CCCCC2)CCN1` (stereo not given), the cytotoxicity at 70.5 h turned out to be 28.9%.

For `Cc1nc(CN(C)C(=O)c2cccc(CC3CCNCC3)c2)no1`, the cytotoxicity at 70.5 h came out at 26.4%.

In the case of `CCCS(=O)(=O)N1CCC2(CCC(=O)N(CCc3ccncc3)C2)CC1`, the cytotoxicity at 70.5 h is -9.81%.

`CCN1CCC(c2nnc(CN3CCCC3)n2C2CC2)CC1`: the cytotoxicity at 70.5 h is -9.82%.

For the compound `COCc1cc(CNC(=O)c2c(O)cccc2O)n[nH]1`, the cytotoxicity at 70.5 h was -1.82%.

Consider `CC(=O)N1CC2(CCN(c3ccc4ccccc4n3)CC2)CC1C(=O)O` (stereo not given), for which the cytotoxicity at 70.5 h was 4.97%.

As for `NC(=O)c1cc2c(nc1-c1ccc3c(c1)CCO3)CCC2`, the cytotoxicity at 70.5 h is -5.32%.

`O=C(c1cc(=O)n(-c2ccccc2)[nH]1)N1CCOC(C(F)(F)F)C1` (stereo not given): the cytotoxicity at 70.5 h came out at 5.57%.

Take `CN1CCC(Cc2noc(-c3cn(Cc4ccccc4Cl)nn3)n2)CC1`: the cytotoxicity at 70.5 h amounted to 0.52%.

`Cc1cc(CN2CCN(CC3CC3)[C@@H]3CS(=O)(=O)C[C@@H]32)ccc1F`: the cytotoxicity at 70.5 h was 6.58%.

For the compound `Cc1cc(C[C@@H]2COC[C@@H]2NC(=O)CCN2Cc3ccccc3C2)on1`, the cytotoxicity at 70.5 h was 11.4%.

`c1cc(CN2CCC(Cc3noc(C4CC4)n3)CC2)c2c(c1)OCO2`: the cytotoxicity at 70.5 h came to 0.325%.

For the compound `O=C(COCc1ccccc1)N1CCCC(OCc2cccnc2)C1` (stereo not given), the cytotoxicity at 70.5 h worked out at 15.5%.

As to `c1csc(CN2CCCN(c3ccc(Cn4ccnc4)cn3)CC2)c1`, the cytotoxicity at 70.5 h is -5.7%.

Turning to `CC(C)c1nc(CN(C)C(=O)c2ccc3c(c2)OCC(=O)N3)cs1`, the cytotoxicity at 70.5 h is -6.75%.

In the case of `CC(C)[C@@H]1CN(c2ncc(F)cn2)C[C@H]1NS(=O)(=O)N(C)C`, the cytotoxicity at 70.5 h amounted to 15.6%.

For the compound `CN1CCC(N(C)CCC(=O)N2CCC(Cc3ccc(F)cc3)CC2)C1` (stereo not given), the cytotoxicity at 70.5 h stood at 24.2%.

On to `Cc1nc(C2CCNCC2)cc(N2CCCC(C(=O)NCCCO)C2)n1` (stereo not given), for which the cytotoxicity at 70.5 h was found to be 10.6%.

Regarding `COCC(=O)N1CCN(S(=O)(=O)c2cccs2)[C@H]2CS(=O)(=O)C[C@H]21`, the cytotoxicity at 70.5 h is -7.15%.

For `CSCCc1c(-c2ccccc2)ncn1CC(C)(C)N1CCOCC1`, the cytotoxicity at 70.5 h was -11.9%.

As to `O=C1CCCN1CCC1CCCCN1C(=O)c1ccc(SCCO)cc1` (stereo not given), the cytotoxicity at 70.5 h is -6.58%.

With `COc1ccc(NC(=O)CCC2CCCN(S(=O)(=O)C3CC3)C2)c(C)c1` (stereo not given), the cytotoxicity at 70.5 h was -6.39%.

Take `CCN(Cc1ccc(O)c(C(=O)O)c1)CC1CCCO1` (stereo not given): the cytotoxicity at 70.5 h turned out to be 24.1%.

As for `Cc1ccsc1CN(CCN(C)C)C(=O)c1ccc(C#N)nc1`, the cytotoxicity at 70.5 h is -8.67%.

For `CCC(=O)N1CCN(C(=O)CCn2cc(Cl)cn2)[C@H]2CS(=O)(=O)C[C@H]21`, the cytotoxicity at 70.5 h is -5.55%.

`Cc1cnc(C)c(N2CCN(CCCc3[nH]nc(C)c3C)CC2)n1`: the cytotoxicity at 70.5 h was 1.19%.

Regarding `CCc1n[nH]c(SCC(=O)N2C[C@@H]3CC[C@H](C2)N(CC=C(C)C)C3)n1`, the cytotoxicity at 70.5 h turned out to be 0.686%.

Consider `COCC(=O)N1CCC(C(=O)N(C)CCCc2nccn2C)CC1`, for which the cytotoxicity at 70.5 h turned out to be 1.13%.

As to `CCN(Cc1noc(CC(C)C)n1)Cc1ccccc1C(=O)O`, the cytotoxicity at 70.5 h is -6.37%.

On to `O=C(NC1CCCN(CCc2ccccc2)C1)c1cnccn1` (stereo not given), for which the cytotoxicity at 70.5 h was -3.22%.

`CCC(C)Oc1ccc(CNCCNC(C)=O)cc1Cl` (stereo not given): the cytotoxicity at 70.5 h was -3.38%.

Consider `Cc1nc(CN(C)Cc2csc(-c3cccs3)n2)co1`, for which the cytotoxicity at 70.5 h is 6.2%.

In the case of `Cc1nc2c(c(NCc3ccccc3)n1)CCN(C(=O)NC(C)C)CC2`, the cytotoxicity at 70.5 h worked out at 30.7%.

`c1ccc(Cc2n[nH]c(C3CCOC3)n2)cc1` (stereo not given): the cytotoxicity at 70.5 h was -3.76%.

For `Cc1n[nH]c(C)c1CCNC(=O)Nc1ccc(S(C)(=O)=O)cc1`, the cytotoxicity at 70.5 h is -20%.

With `CSCCC(=O)N1CCCCC1CCn1cccn1` (stereo not given), the cytotoxicity at 70.5 h is -6.75%.

With `Cc1nccn1CCC1CCCCN1Cc1cccc(CCN)c1` (stereo not given), the cytotoxicity at 70.5 h is -1.82%.

In the case of `CN(C)C(Cn1ccnc1-c1nccn1C)c1ccccc1Cl` (stereo not given), the cytotoxicity at 70.5 h was -5.92%.

Turning to `Cc1nc[nH]c1CN1CCOC(CCNC(=O)c2ccsc2)C1` (stereo not given), the cytotoxicity at 70.5 h was 2.08%.

As to `Cc1ncsc1CN1C[C@@H]2COC[C@]2(CNC(=O)c2ccco2)C1`, the cytotoxicity at 70.5 h was -10.4%.

For the compound `O=C(NC1CC1)[C@@H]1C[C@@H]2CCN(Cc3ccccc3)C[C@H]2O1`, the cytotoxicity at 70.5 h is -9.32%.

In the case of `CN(C)[C@@H]1CCN(C(=O)Cc2cccs2)[C@H]1Cc1ccncc1`, the cytotoxicity at 70.5 h was -8%.
